Measurements from patent US12473310B2, “Vitamin D3 phosphate and pharmaceutically acceptable salts thereof, pharmaceutical compositions comprising the compound and methods for preparing the compound” (King's College London, priority 2020, dated 2025).

What was measured:
[1] = skin permeation and deposition, automated Franz diffusion cell (Example 5); format: in vitro ADME; conditions: PG formulation
Description: For the final formulation, 61.5 mg of cholecalciferol phosphate acid in 4.1 mL hexane was added into 1.435 mL DURO-TAK 87-2051 (51.5 w/v %) with 16.4 μL α-tocopherol and 20.5 μL diethylene glycol monoethyl ether. Likewise, 120 mg of cholecalciferol phosphate disodium salt in 35.2 mL MeOH:water (10:1) was added to 1.336 mL of DURO-TAK 87-2051 (51.5 w/v %) in 56 mL ethyl acetate with 32 mg of α-tocopherol and 48 μL diethylene glycol monoethyl ether. Each formulation was spread evenly on the 10×10 cm patch tray and left overnight to dry completely. Following the complete drying of the solvents, the adhesive layer was covered by the M3 Release layer (SCOTCHPAK 9755, UK), compressed, and then cut using a 34 mm circular manual die cutter (SCP Super Cutting Press, UK).
Subsequently, 1 mL aliquots were applied to the skin.
The automated Franz diffusion cell was used to investigate the permeation of cholecalciferol, cholecalciferol phosphate salt and cholecalciferol phosphate acid through porcine skin. Fresh white adult porcine ears were obtained from a local butcher (Ginger Pig, UK). Any damaged ears were discarded. The ears were removed from the carcass after hair removal. […] The collected receiver fluid was analysed by HPLC methods described previously.
At the end of the transport studies, the Franz cells were dismantled, and the donor solution was collected into bottles containing 10 mL of extraction fluid; MeOH for cholecalciferol, cholecalciferol phosphate acid and MeOH:water (90:10) for cholecalciferol phosphate salt, by wiping the surface of the skin and the inside of the donor compartment with two wet and then two dry cotton buds. […] Each collection was analysed by the HPLC method described above. Thus, the amount of each test agent on the surface of the skin, deposited in the skin, and passed into the receiver fluid was determined so that % mass recovery per cm^2 per skin could be calculated and drug deposition profiles could be obtained.

[2] = physchem; format: physicochemical; conditions: % Recovery
Description: To validate the method of test agent recovery from the skin, solutions (1.0 mg/mL) of each vitamin D analogue were prepared in 100% PG. The precise concentrations in these samples were analysed by HPLC method described above. To assess the chemical stability of each test agent in the donor solutions used in the Franz cell experiments, 1.0 mg/mL of the samples prepared in 100% PG were incubated in a water bath at 37° C. for 24 h. In addition, to understand the chemical stability of each test agent in the extraction solvents used in the skin deposition studies, 1 mL of the drug sample in 100% PG was added into 10 mL of extraction fluid (MeOH for cholecalciferol, cholecalciferol phosphate acid, and MeOH:water, 90:10 for cholecalciferol phosphate disodium salt). Samples in PG (n=3) and samples in PG with the extraction fluid (n=3) were left in the water bath overnight at 37° C. and the sample concentration was analysed by the HPLC method described above. To assess whether the HPLC fluid had been impacted by any proteins that had leaked out of the skin, PG:water, 80:20 was added to donor and receiver chambers of porcine skin loaded Franz cells (n=3). A 5 mL sample of the receiver fluid was collected, and 25 μL of each test solution was added to this fluid and diluted to MeOH (1:1) and analysed by the HPLC method described previously. To verify the percentage of drug that could be recovered from the skin tissue, the skin sections were dermatomed (1 mm thickness) (n=3). The test solutions were spiked (50 μL) into a sample bottle containing the chopped dermatomed skin tissue. The samples containing the spiked drugs were left for 1 h for the drugs to absorb into the tissues. After the 1 h incubation period, 5 mL of extraction fluid (MeOH for cholecalciferol, cholecalciferol phosphate acid, and MeOH:water, 90:10 for cholecalciferol phosphate disodium salt) was added into each piece of the dermatomed skin tissue, then incubated in a shaking water bath for 1 h. The solutions were then tissue lysed by a tissue lyser for 40 min and homogenised by Ultra Turrax for 1 min and filtered using 0.45 μm syringe filters, centrifuged for 10 min at 13,000 rpm, and analysed by the HPLC method described above. In terms of cholecalciferol phosphate acid, after 1 h incubation and adding 5 mL extraction fluid, immediately the solutions with skin tissues were tissue lysed by a tissue lyser for 15 min. The solutions were then centrifuged for 10 min at 13,000 rpm and the supernatants were analysed by the HPLC method described above.

[3] = chemical stability on storage over 4 weeks; format: physicochemical
Description: The chemical stability of cholecalciferol phosphate acid/disodium salt was assessed in three different conditions over a 4-week period. Aliquots of 2 mg for each sample was stored at room temperature, 4° C., and −20° C. in a glass bottle covered with foil. A 20 mL sample of MeOH and MeOH:water (90:10) was added to cholecalciferol phosphate acid and cholecalciferol phosphate disodium salt, and the concentration and purity were assessed every week by the HPLC method described previously. The peak area was used to calculate sample concentration and the gradient of the data points being used to calculate the degradation rate.

[4] = patch pre-formulation, saturated concentration in adhesive; format: physicochemical; conditions: DURO-TAK 87-2051 adhesive
Description: To each solution, 175 μL of the transdermal adhesive DURO-TAK 87-2051 (51.5 w/v %) was added, and vortexed. Then 2.0 μL of α-tocopherol and 2.5 μL of diethylene glycol monoethyl ether were added and vortexed. The visual solubility was assessed.
To this solution 4 mg of α-tocopherol in 3 mL ethyl acetate was added and 167 μL of the transdermal adhesive DURO-TAK 87-2051 (51.5 w/v %) in 7 mL ethyl acetate with 6 μL diethylene glycol monoethyl ether was also added.
Each solution (3×3 cm) was cast onto the backing (3M™ Scotchpak™ Polyester Backing Film Laminate 9730, UK) to determine the clarity, and the saturation limit of the test agents in the adhesive mixtures.

[5] = solubility in donor solution and thermodynamic activity (Table 4); format: physicochemical; conditions: PG

C=C1CC[C@H](OP(=O)(O)O)C/C1=C/C=C1\CCC[C@@]2(C)C1CC[C@@H]2[C@H](C)CCCC(C)C (stereo in doubt) [Cholecalciferol phosphate acid, cholecalciferol phosphate acid]
fold higher transdermal permeation through the skin compared to cholecalciferol [1]: about 9.34 fold
recovery at 0.091 mg/mL ([2]; chemical stability with extraction fluid): 92.2 ± 2.26%
recovery at 24 h, 1 mg/mL ([2]; chemical stability without extraction fluid): 88.5 ± 3.35%
loss of the original compound over 4 weeks ([3]; 4° C.): 9.98%
reduction of purity over 4 weeks ([3]; 4° C.): 27.18%
loss of the original compound over 4 weeks ([3]; room temperature): 77.15%
reduction of purity over 4 weeks ([3]; room temperature): 72.2%
reduction of purity over 4 weeks ([3]; −20° C.): 1.03%
saturated concentration in patch formulation (highest loading without precipitation) [4]: 5.02 w/w %
Solubility in PG [5]: 4690 µg/mL
